Results from the supplement of paper PMC11424490.

Experiments:
[1] = tested on: NCI-H2122; test: fitted bottom plateau of viability curve, % of DMSO control; higher = less maximal inhibition; extreme values may be limits of the assay
In short: (§1)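 Compounds were dispensed acoustically as dose series, one compound per well, 24 h after seeding cells in 60 µl per well of 384-well plates (800 cells/well for NCI-H2122, 500 cells/well for SW837 and NCI-H358). Plates were incubated 144 h for SW837 and 72 h for the other two lines, then shaken 15 min and read for CellTiter-Glo luminescence on an EnVision reader. Signals were converted to percent of DMSO controls. The relative IC50, averaged over replicates, and the lower plateau come from fitting a four-parameter nonlinear model.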

[2] = tested on: NCI-H358; test: as above
In short: as §1

[3] = tested on: SW837; test: as above
In short: as §1

[4] = tested on: NCI-H2122; test: relative IC50 of cell viability (CellTiter-Glo); higher = less potent
In short: as §1

[5] = tested on: NCI-H358; test: as above
In short: as §1

[6] = tested on: SW837; test: as above
In short: as §1

Row | Structure (SMILES) | fitted bottom plateau of viability curve [1] | fitted bottom plateau of viability curve [2] | fitted bottom plateau of viability curve [3] | relative IC50 of cell viability [4] | relative IC50 of cell viability [5] | relative IC50 of cell viability [6]
1 | CCc1c2c(nc3ccc(O)cc13)-c1cc3c(c(=O)n1C2)COC(=O)[C@]3(O)CC [SN-38] (top concentration tested 99.894 nM) | 30.2% | 7.46% | 2.39% | 6.15 nM | 6.48 nM | 10.4 nM
2 | Cc1c(-c2c(-c3ccc(F)o3)sc3ncnc(O[C@H](Cc4ccccc4OCc4ccnn4CC(F)(F)F)C(=O)O)c23)ccc(OCCN2CCN(C)CC2)c1Cl (top concentration tested 10000 nM) | 34.5% | 0% | 101% | 3790 nM | 3590 nM | –
3 | C[C@@H]1OCC2(CCN(c3cnc(Sc4ccnc(N)c4Cl)c(N)n3)CC2)[C@@H]1N [TNO155] (top concentration tested 10000 nM) | 69.5% | 29.4% | 94.5% | – | 499 nM | –
4 | CCN1CCN(Cc2ccc(Nc3ncc(F)c(-c4cc(F)c5nc(C)n(C(C)C)c5c4)n3)nc2)CC1 [Abemaciclib] (top concentration tested 10000 nM) | 35.8% | 0% | 0% | 960 nM | 297 nM | 5140 nM
5 | Cc1nc(-c2cn3c(n2)-c2ccc(-c4cnn(C(C)(C)C(N)=O)c4)cc2OCC3)n(C(C)C)n1 [Taselisib] (top concentration tested 10000 nM) | 16.9% | 1.64% | 86% | 290 nM | 470 nM | –
6 | Cc1ccc(C(=O)Nc2ccc(CN3CCN(C)CC3)c(C(F)(F)F)c2)cc1C#Cc1cnc2cccnn12 [Ponatinib] (top concentration tested 10000 nM) | 0.652% | 0.0743% | 0% | 887 nM | 2290 nM | 1250 nM
7 | COc1cc2ncnc(Nc3ccc(F)c(Cl)c3)c2cc1OCCCN1CCOCC1 [Gefitinib] (top concentration tested 9999.9 nM) | 37.8% | 19.7% | 77.7% | 3100 nM | 883 nM | –
8 | CCc1nc(N)nc(N)c1-c1ccc(Cl)cc1 [Pyrimethamine] (top concentration tested 50000 nM) | 28.9% | 45.5% | 39% | 3430 nM | 8340 nM | 8070 nM
9 | CCN(CCCOc1ccc2c(Nc3cc(CC(=O)Nc4cccc(F)c4)[nH]n3)ncnc2c1)CCOP(=O)(O)O [AZD-1152] (top concentration tested 1000.1 nM) | 57.4% | 60.1% | 62% | – | 28 nM | –
10 | CC(C)n1nc(-c2ccc3oc(N)nc3c2)c2c(N)ncnc21 [MLN-0128] (top concentration tested 99.893 nM) | 22.6% | 17.7% | 85.3% | 25.9 nM | 27.2 nM | –
11 | C[C@H](Nc1ccc2c(c1)OCCn1cc(N3C(=O)OC[C@H]3C(F)F)nc1-2)C(N)=O [GDC-0077] (top concentration tested 10000 nM) | 48.4% | 23.1% | 68.7% | 867 nM | 712 nM | –
12 | COc1cc(N2CCC(N3CCN(C)CC3)CC2)ccc1Nc1ncc(Cl)c(Nc2ccccc2S(=O)(=O)C(C)C)n1 [NVP-TAE684] (top concentration tested 10000 nM) | 0.655% | 3.01% | 56.5% | 384 nM | 922 nM | –
13 | CC1(C)CCC(c2ccc(Cl)cc2)=C(CN2CCN(c3ccc(C(=O)NS(=O)(=O)c4ccc(N[C@H](CCN5CCOCC5)CSc5ccccc5)c(S(=O)(=O)C(F)(F)F)c4)cc3)CC2)C1 [ABT-263] (top concentration tested 10000 nM) | 50% | 0% | 46% | 6240 nM | 6290 nM | –
14 | C=C(F)C(=O)N1CCN(c2nc(OC[C@@H]3CCCN3C)nc3c2CCN(c2cccc4cccc(Cl)c24)C3)C[C@@H]1CC#N [MRTX849 / Adagrasib] (top concentration tested 999.97 nM) | 7.33% | 1.24% | 0.0244% | 39.7 nM | 25.2 nM | 304 nM
15 | COc1cc2/c(=N/c3ccc(Br)cc3F)nc[nH]c2cc1OCC1CCN(C)CC1 [Vandetanib] (top concentration tested 10000 nM) | 49.8% | 3.22% | 82.1% | 2070 nM | 1340 nM | –
16 | COc1cc(CCc2cc(NC(=O)c3ccc(N4CC(C)NC(C)C4)cc3)n[nH]2)cc(OC)c1 (centres undefined) [AZD4547] (top concentration tested 10000 nM) | 68% | 0% | 86.8% | 4100 nM | 5730 nM | –
17 | COc1cccc2c1C(=O)c1c(O)c3c(c(O)c1C2=O)C[C@@](O)(C(C)=O)C[C@@H]3O[C@H]1C[C@H](N)[C@H](O)[C@H](C)O1 [Daunorubicin] (top concentration tested 1000 nM) | 17.2% | 1.56% | 0.5% | 120 nM | 27.6 nM | 111 nM
